In patent US10035800B2 (AbbVie Inc., priority 2013, dated 2018) one finds Ki and EC50 data, which are given here for 22 compounds.

Test [1] addresses T1, BRD4 (BDI_K57-E168) (Homo sapiens, UniProt O60885).
T1 construct: BD1: amino acids K57-E168; made in house
In words: TR-FRET bromodomain binding assay, first bromodomain of BRD4. The conditions noted are these: 100 nM probe. An outline of the steps: (§1)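 His-tagged BRD4 bromodomain (8 nM) was incubated with Eu-anti-His antibody (1 nM) and an Alexa647-labelled BET-inhibitor probe (100 nM for BDI, 30 nM for BDII) in pH 6.0 phosphate buffer with 2% DMSO for 1 h at room temperature. TR-FRET ratio was read, IC50 fitted by 4-parameter logistic, then converted to Ki.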

Test [2] has as its system breast cancer cell line MX-1. Kind of test: MX-1 cell line proliferation assay. The test is classed as cell-based. Particulars: MX-1 cells, 3-day proliferation assay, Cell Titer Glo; read-out: Cellular proliferation: EC50. An outline of the steps:
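EC50 comes from sigmoidal fits of Cell Titer Glo luminescence relative to DMSO controls, with assay MSR 2.1. Ten-point 3-fold dilutions (top 3 or 1 μM final) were added to MX-1 breast cancer cells after overnight adhesion. Cells were at 5000/well and proliferation ran 3 days.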

Test [3] addresses T2, BRD4 (BDII_E352-M457) (Homo sapiens, UniProt O60885).
T2 construct: protocol; made in house
Kind of test: TR-FRET bromodomain binding assay, second bromodomain of BRD4. The conditions noted are these: 30 nM probe. An outline of the steps:
as §1
(In general: TR-FRET usually uses a lanthanide donor and a delayed reading to cut background.)

[4] abbreviates: TR-FRET assay protocol G (compound 0.92 μM-15 pM).
The mark [5] stands for this setting: TR-FRET assay protocol E (compound 9.19 μM-150 pM).

Some results are limits rather than exact numbers.

By Ki is commonly meant the equilibrium dissociation constant of an inhibitor or competing ligand from its target. Read a high Ki as weaker binding. Consider `CC(=O)OCCCCCCC1c2c[nH]c3c(=O)n(C)cc(c23)-c2cc(CS(C)(=O)=O)ccc2N1c1ccc(F)cc1F` (stereo not drawn) [Example 128, 6-(4-(2,4-difluorophenyl)-10-methyl-7-((methylsulfonyl)methyl)-11-oxo-3,4,10,11-tetrahydro-1H-1,4,10-triazadibenzo[cd,f]azulen-3-yl)hexyl acetate], for which the inhibition constant (Ki) in test [1] (setting [4]) is 29.1 nM; in test [3] (setting [4]) it was 2 nM. For the same compound, the EC50 in test [2] worked out at 72.9 nM.
The matching figures for `Cn1cc2c3c(c[nH]c3c1=O)C(CNC(=O)CN)N(c1ccc(F)cc1F)c1ccc(CS(C)(=O)=O)cc1-2` (stereo not drawn) [Example 139, 2-amino-N-((4-(2,4-difluorophenyl)-10-methyl-7-((methylsulfonyl)methyl)-11-oxo-3,4,10,11-tetrahydro-1H-1,4,10-triazadibenzo[cd,f]azulen-3-yl)methyl)acetamide]: 17.5 nM, 2.33 nM and 627 nM.
The matching figures for `Cc1ccccc1NC(=O)N1Cc2c[nH]c3c(=O)n(C)cc(c23)-c2cc(CS(C)(=O)=O)ccc21` [Example 52, 10-methyl-7-((methylsulfonyl)methyl)-11-oxo-N-(o-tolyl)-10,11-dihydro-1H-1,4,10-triazadibenzo[cd,f]azulene-4(3H)-carboxamide]: 17.4 nM, 4.99 nM and 247 nM.
In the same order, the values of `Cn1cc2c3c(c(C(N)=O)[nH]c3c1=O)CN(c1ccc(F)cc1F)c1ccc(CS(C)(=O)=O)cc1-2` [Example 209, 4-(2,4-difluorophenyl)-10-methyl-7-((methylsulfonyl)methyl)-11-oxo-3,4,10,11-tetrahydro-1H-1,4,10-triazadibenzo[cd,f]azulene-2-carboxamide] are 1.2 nM, 0.86 nM and 6.54 nM.
For `Cn1cc2c3c(c[nH]c3c1=O)CN(CC1CCN(C(=O)OC(C)(C)C)C1)c1ccc(CS(C)(=O)=O)cc1-2` (racemic) [Example 25, tert-butyl 3-((10-methyl-7-((methylsulfonyl)methyl)-11-oxo-10,11-dihydro-1H-1,4,10-triazadibenzo[cd,f]azulen-4(3H)-yl)methyl)pyrrolidine-1-carboxylate], the Ki in test [1] (setting [5]) was 1.74 nM; in test [3] (setting [5]), 0.847 nM. The EC50 in test [2] was 8.7 nM.
As for `COC(=O)CCCN1Cc2c[nH]c3c(=O)n(C)cc(c23)-c2cc(F)cc(F)c21` [Example 50, methyl 4-(5,7-difluoro-10-methyl-11-oxo-10,11-dihydro-1H-1,4,10-triazadibenzo[cd,f]azulen-4(3H)-yl)butanoate], the Ki in test [1] (setting [4]) is 3.44 nM; in test [3] (setting [4]) it was 5.51 nM. Moreover, the EC50 in test [2] was found to be 42.2 nM.
The matching figures for `Cn1cc2c3c(c[nH]c3c1=O)CN(C(=O)Oc1ccc3ccccc3c1)c1ccc(CS(C)(=O)=O)cc1-2` [Example 90, naphthalen-2-yl 10-methyl-7-((methylsulfonyl)methyl)-11-oxo-10,11-dihydro-1H-1,4,10-triazadibenzo[cd,f]azulene-4(3H)-carboxylate]: 1.32 nM, 2.01 nM and 30.6 nM.
In the same order, the values of `Cn1cc2c3c(c[nH]c3c1=O)C(CC(C)(C)C)N(c1ccc(F)cc1F)c1ccc(CS(C)(=O)=O)cc1-2` (stereo not drawn) [Example 219, 4-(2,4-difluorophenyl)-10-methyl-7-((methylsulfonyl)methyl)-3-neopentyl-3,4-dihydro-1H-1,4,10-triazadibenzo[cd,f]azulen-11(10H)-one] are 39.9 nM, 4.76 nM and 301 nM.
In the same order, the values of `CCNC(=O)c1[nH]c2c(=O)n(C)cc3c2c1C(C(=O)OCC)N(c1ccc(F)cc1F)c1ccc(CS(C)(=O)=O)cc1-3` (stereo not drawn) [Example 239, ethyl 4-(2,4-difluorophenyl)-2-(ethylcarbamoyl)-10-methyl-7-((methylsulfonyl)methyl)-11-oxo-3,4,10,11-tetrahydro-1H-1,4,10-triazadibenzo[cd,f]azulene-3-carboxylate] are 31.9 nM, 2.12 nM and 294 nM.
With “10-methyl-7-((methylsulfonyl)methyl)-4-(piperidin-4-ylmethyl)-3,4-dihydro-1H-1,4,10-triazadibenzo[cd,f]azulen-11(10H)-one [Example 37]”, the Ki in test [1] (setting [4]) stood at 3.36 nM; in test [3] (setting [4]), 2.4 nM. In test [2], the EC50 was over 1000 nM.
For `Cn1cc2c3c(c[nH]c3c1=O)CN(C1CCC(NC(=O)OC(C)(C)C)CC1)c1ccc(CS(C)(=O)=O)cc1-2` (stereo not drawn) [Example 197, tert-butyl ((trans)-4-(10-methyl-7-((methylsulfonyl)methyl)-11-oxo-10,11-dihydro-1H-1,4,10-triazadibenzo[cd,f]azulen-4(3H)-yl)cyclohexyl)carbamate], the Ki is 1.52 nM in test [1] (setting [4]) and 2.65 nM in test [3] (setting [4]). The EC50 in test [2] came to 2.66 nM.
The matching figures for `CCOCCCC1c2c[nH]c3c(=O)n(C)cc(c23)-c2cc(CS(C)(=O)=O)ccc2N1c1ccc(F)cc1F` (stereo not drawn) [Example 148, 4-(2,4-difluorophenyl)-3-(3-ethoxypropyl)-10-methyl-7-((methylsulfonyl)methyl)-3,4-dihydro-1H-1,4,10-triazadibenzo[cd,f]azulen-11(10H)-one]: 6.77 nM, 0.54 nM and 31.9 nM.
In the same order, the values of “10-methyl-7-((methylsulfonyl)methyl)-4-(pyrimidin-4-yl)-3,4-dihydro-1H-1,4,10-triazadibenzo[cd,f]azulen-11(10H)-one [Example 259]” are 3.4 nM, 3.05 nM and 19 nM.
In the same order, the values of `Cn1cc2c3c(c[nH]c3c1=O)C(c1ccccn1)N(c1ccc(F)cc1F)c1ccc(CS(C)(=O)=O)cc1-2` (stereo not drawn) [Example 232, 4-(2,4-difluorophenyl)-10-methyl-7-((methylsulfonyl)methyl)-3-(pyridin-2-yl)-3,4-dihydro-1H-1,4,10-triazadibenzo[cd,f]azulen-11(10H)-one] are 108 nM, 8.48 nM and 363 nM.
For `Cn1cc2c3c(c[nH]c3c1=O)CN(C(=O)Nc1ccc(F)cc1F)c1ccc(CS(C)(=O)=O)cc1-2` [Example 68, N-(2,4-difluorophenyl)-10-methyl-7-((methylsulfonyl)methyl)-11-oxo-10,11-dihydro-1H-1,4,10-triazadibenzo[cd,f]azulene-4(3H)-carboxamide], the Ki in test [1] (setting [4]) was determined as 12.7 nM; in test [3] (setting [4]), 4.22 nM. Besides, the EC50 in test [2] stood at 40.1 nM.
The matching figures for `COc1cc(OC)cc(C2c3c[nH]c4c(=O)n(C)cc(c34)-c3cc(CS(C)(=O)=O)ccc3N2c2ccc(F)cc2F)c1` (stereo not drawn) [Example 222, 4-(2,4-difluorophenyl)-3-(3,5-dimethoxyphenyl)-10-methyl-7-((methylsulfonyl)methyl)-3,4-dihydro-1H-1,4,10-triazadibenzo[cd,f]azulen-11(10H)-one]: 170 nM, 29.4 nM and 160 nM.
In the same order, the values of `Cn1cc2c3c(c[nH]c3c1=O)CN(Cc1ccccc1)c1ccc(CS(C)(=O)=O)cc1-2` [Example 247, 4-benzyl-10-methyl-7-((methylsulfonyl)methyl)-3,4-dihydro-1H-1,4,10-triazadibenzo[cd,f]azulen-11(10H)-one] are 2.22 nM, 2.42 nM and 4.94 nM.
The matching figures for `Cn1cc2c3c(c[nH]c3c1=O)CN(C(=O)Nc1ccc(F)cc1)c1ccc(CS(C)(=O)=O)cc1-2` [Example 46]: 13.7 nM, 7.48 nM and 152 nM.
“4-(cyclopropylmethyl)-7-(isopropylsulfonyl)-10-methyl-3,4-dihydro-1H-1,4,10-triazadibenzo[cd,f]azulen-11(10H)-one [Example 1]”: the Ki in test [1] (setting [5]) is 32.7 nM; in test [3] (setting [5]), 10.5 nM. The EC50 in test [2] came to 27.2 nM.
In the case of `Cn1cc2c3c(c[nH]c3c1=O)C(Cn1ccccc1=O)N(c1ccc(F)cc1F)c1ccc(CS(C)(=O)=O)cc1-2` (single isomer, unassigned) [Example 252], the Ki in test [1] (setting [4]) was found to be 16.1 nM; in test [3] (setting [4]) it was 2.24 nM. Also, the EC50 in test [2] was found to be 108 nM.
The matching figures for `Cn1cc2c3c(c[nH]c3c1=O)C(CCC(=O)NC1CCOCC1)N(c1ccc(F)cc1F)c1ccc(CS(C)(=O)=O)cc1-2` (stereo not drawn) [Example 121, 3-(4-(2,4-difluorophenyl)-10-methyl-7-((methylsulfonyl)methyl)-11-oxo-3,4,10,11-tetrahydro-1H-1,4,10-triazadibenzo[cd,f]azulen-3-yl)-N-(tetrahydro-2H-pyran-4-yl)propanamide]: 6.65 nM, 0.799 nM and over 1000 nM.
In the same order, the values of `Cn1cc2c3c(c[nH]c3c1=O)C(CCNC(=O)OCc1ccccc1)N(c1ccc(F)cc1F)c1ccc(CS(C)(=O)=O)cc1-2` (racemic) [Example 229, benzyl (2-(4-(2,4-difluorophenyl)-10-methyl-7-((methylsulfonyl)methyl)-11-oxo-3,4,10,11-tetrahydro-1H-1,4,10-triazadibenzo[cd,f]azulen-3-yl)ethyl)carbamate] are 4.11 nM, 1.96 nM and 41.2 nM.
